Converted amounts (≈) assume the structure as drawn. Where two headings read alike, the source gives them in different places.
How the values were obtained:
Type in all cases: cell-based
[1] = tested on: Phytophthora capsici (Pc); assay: In vitro pathogen growth inhibition assay, Pc; conditions: 48 h
How it was run: (§1)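 Spores of Dm, Fv and Pc were diluted in 17% V8 liquid medium; Rs used 1.5 mm mycelial plugs in ¼ PDB. Compounds from 2.5 mg/ml DMSO stocks were combined with inoculum, growth was read by OD600 at 24 and 48 h with blank subtraction, and the reported value is the concentration giving ≥90% inhibition.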

[2] = tested on: Collectotrichum graminicola (Cg); assay: In vitro pathogen growth inhibition assay, Cg; conditions: 48 h
How it was run: (§2)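 Spores in 17% V8 liquid medium, or 1.5 mm Rs mycelial plugs in ¼ PDB, incubated with compound; final concentration checked by OD600 for precipitation. OD readings at 24 and 48 h, blank-subtracted, plus visual ratings; value is concentration giving ≥90% growth inhibition.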

[3] = tested on: Botrtyis cinerea (Bc); assay: In vitro pathogen growth inhibition assay, Bc; conditions: 48 h
How it was run: as §2

[4] = tested on: Fusarium virguliforme (Fv); assay: In vitro pathogen growth inhibition assay, Fv
How it was run: as §1

[5] = tested on: Diplodia maydis (Dm); assay: In vitro pathogen growth inhibition assay, Dm; conditions: Stenocarpella maydis, 48 h
How it was run: as §1

[6] = tested on: Rhizoctonia solani (Rs); assay: In vitro pathogen growth inhibition assay, Rs (mycelial plugs); conditions: Rhizoctonia solani, 48 h
How it was run: as §1

[7] = tested on: Septoria tritici (St); assay: In vitro pathogen growth inhibition assay, St; conditions: Zymoseptoria tritici, 48 h
How it was run: as §2

[8] = tested on: Fusarium moniliforme (Fm); assay: In vitro pathogen growth inhibition assay, Fm; conditions: Fusarium verticillioides
How it was run: as §2

[9] = ≥90% growth inhibition, 48 hours, vs 2% DMSO control, read-out: Compound Concentration (ppm) sufficient for ≥90% inhibition of Pc
[10] = ≥90% growth inhibition, 48 hours, vs 2% DMSO control, read-out: Compound Concentration (ppm) sufficient for ≥90% inhibition of Cg
[11] = ≥90% growth inhibition, 48 hours, vs 2% DMSO control, read-out: Compound Concentration (ppm) sufficient for ≥90% inhibition of Bc
[12] = ≥90% growth inhibition, 48 hours, vs 2% DMSO control, read-out: Compound Concentration (ppm) sufficient for ≥90% inhibition of Fv
[13] = ≥90% growth inhibition, 48 hours, vs 2% DMSO control, read-out: Compound Concentration (ppm) sufficient for ≥90% inhibition of Dm
[14] = ≥90% growth inhibition, mycelial plugs, 48 hours, vs 2% DMSO control, read-out: Compound Concentration (ppm) sufficient for ≥90% inhibition of Rs
[15] = ≥90% growth inhibition, 48 hours, vs 2% DMSO control, read-out: Compound Concentration (ppm) sufficient for ≥90% inhibition of St
[16] = ≥90% growth inhibition, 48 hours, vs 2% DMSO control, read-out: Compound Concentration (ppm) sufficient for ≥90% inhibition of Fm
[17] = concentration sufficient to ≥90% inhibition of growth, 48 hours vs 2% DMSO control, read-out: Compound Concentration (ppm) for ≥90% inhibition, Pc
[18] = concentration sufficient to ≥90% inhibition of growth, 48 hours vs 2% DMSO control, read-out: Compound Concentration (ppm) for ≥90% inhibition, Cg
[19] = concentration sufficient to ≥90% inhibition of growth, 48 hours vs 2% DMSO control, read-out: Compound Concentration (ppm) for ≥90% inhibition, Bc
[20] = concentration sufficient to ≥90% inhibition of growth, 48 hours vs 2% DMSO control, read-out: Compound Concentration (ppm) for ≥90% inhibition, Fv
[21] = concentration sufficient to ≥90% inhibition of growth, 48 hours vs 2% DMSO control, read-out: Compound Concentration (ppm) for ≥90% inhibition, Dm
[22] = concentration sufficient to ≥90% inhibition of growth, 48 hours vs 2% DMSO control, read-out: Compound Concentration (ppm) for ≥90% inhibition, Rs
[23] = concentration sufficient to ≥90% inhibition of growth, 48 hours vs 2% DMSO control, read-out: Compound Concentration (ppm) for ≥90% inhibition, St
[24] = concentration sufficient to ≥90% inhibition of growth, 48 hours vs 2% DMSO control, read-out: Compound Concentration (ppm) for ≥90% inhibition, Fm

SMILES	IC90 [1, 9]	IC90 [2, 10]	IC90 [3, 11]	IC90 [4, 12]	IC90 [5, 13]	IC90 [6, 14]	IC90 [7, 15]	IC90 [8, 16]	further results
COCCO[C@@H](Cn1c(=O)n([C@@H](C)C(=O)NC(C)C)c(=O)c2c(C)c(-n3nccn3)sc21)c1cc(F)ccc1OC [Compound I-172]	> 50 µg/mL	50 µg/mL (≈ 84.9 µM)	2 µg/mL (≈ 3.4 µM)	50 µg/mL (≈ 84.9 µM)	10 µg/mL (≈ 17 µM)	10 µg/mL (≈ 17 µM)	> 50 µg/mL	2 µg/mL (≈ 3.4 µM)	–
Cc1c(-n2nccn2)sc2c1c(=O)n(C(C)(C)C(=O)NC(C)C)c(=O)n2C[C@H](OCCC#N)c1ccccc1O [Compound I-301]	> 50 µg/mL	> 50 µg/mL	10 µg/mL (≈ 17.7 µM)	≥ 2 µg/mL	> 50 µg/mL	10 µg/mL (≈ 17.7 µM)	> 50 µg/mL	2 µg/mL (≈ 3.54 µM)	–
COCCO[C@@H](Cn1c(=O)n(C(C)(C)C(=O)NC(C)C)c(=O)c2c(C)c(-n3nccn3)sc21)c1cc(F)ccc1C [Compound I-248]	> 50 µg/mL	2 µg/mL (≈ 3.41 µM)	2 µg/mL (≈ 3.41 µM)	0.4 µg/mL (≈ 0.682 µM)	≥ 10 µg/mL	10 µg/mL (≈ 17 µM)	≥ 10 µg/mL	0.4 µg/mL (≈ 0.682 µM)	–
COc1ccc(F)cc1[C@H](Cn1c(=O)n(C(C)(C)C(=O)N(C)C)c(=O)c2c(C)c(-n3nccn3)sc21)OC(C)C [Compound I-131]	–	–	–	–	–	–	–	–	IC90 ([1]; ≥90% inhibition, 48 hours vs 2% DMSO control, read-out: Compound Concentration (ppm) sufficient for ≥90% inhibition of growth, Pc): > 50 µg/mL; IC90 ([2]; ≥90% inhibition, 48 hours vs 2% DMSO control, read-out: Compound Concentration (ppm) sufficient for ≥90% inhibition of growth, Cg): 10 µg/mL (≈ 17.5 µM); IC90 ([3]; ≥90% inhibition, 48 hours vs 2% DMSO control, read-out: Compound Concentration (ppm) sufficient for ≥90% inhibition of growth, Bc): 0.4 µg/mL (≈ 0.698 µM); IC90 ([4]; ≥90% inhibition, 48 hours vs 2% DMSO control, read-out: Compound Concentration (ppm) sufficient for ≥90% inhibition of growth, Fv): 0.4 µg/mL (≈ 0.698 µM); IC90 ([5]; ≥90% inhibition, 48 hours vs 2% DMSO control, read-out: Compound Concentration (ppm) sufficient for ≥90% inhibition of growth, Dm): 2 µg/mL (≈ 3.49 µM); IC90 ([6]; ≥90% inhibition, mycelial plugs, 48 hours vs 2% DMSO control, read-out: Compound Concentration (ppm) sufficient for ≥90% inhibition of growth, Rs): ≥ 0.4 µg/mL; IC90 ([7]; ≥90% inhibition, 48 hours vs 2% DMSO control, read-out: Compound Concentration (ppm) sufficient for ≥90% inhibition of growth, St): > 50 µg/mL; IC90 ([8]; ≥90% inhibition, 48 hours vs 2% DMSO control, read-out: Compound Concentration (ppm) sufficient for ≥90% inhibition of growth, Fm): 0.4 µg/mL (≈ 0.698 µM)
COc1ccc(F)cc1[C@H](Cn1c(=O)n([C@@H](C)C(N)=O)c(=O)c2c(C)c(-n3nccn3)sc21)OCC(C)(C)C#N [Compound I-256]	–	–	–	–	–	–	–	–	IC90 [1, 17]: > 50 µg/mL; IC90 [2, 18]: 50 µg/mL (≈ 87.8 µM); IC90 [3, 19]: 50 µg/mL (≈ 87.8 µM); IC90 [4, 20]: 50 µg/mL (≈ 87.8 µM); IC90 [5, 21]: 50 µg/mL (≈ 87.8 µM); IC90 [6, 22]: 50 µg/mL (≈ 87.8 µM); IC90 [7, 23]: > 50 µg/mL; IC90 [8, 24]: 10 µg/mL (≈ 17.6 µM)
CCNC(=O)C(C)(C)n1c(=O)c2c(C)c(-n3nccn3)sc2n(C[C@@H](O)c2cc(F)ccc2OC)c1=O [Compound I-291]	–	–	–	–	–	–	–	–	IC90 [1, 17]: > 50 µg/mL; IC90 [2, 18]: > 50 µg/mL; IC90 [3, 19]: 50 µg/mL (≈ 94.2 µM); IC90 [4, 20]: 50 µg/mL (≈ 94.2 µM); IC90 [5, 21]: 50 µg/mL (≈ 94.2 µM); IC90 [6, 22]: 2 µg/mL (≈ 3.77 µM); IC90 [7, 23]: > 50 µg/mL; IC90 [8, 24]: 10 µg/mL (≈ 18.8 µM)
CCOC(=O)c1sc2c(c1C)c(=O)n(C(C)(C)C(=O)NC(C)C)c(=O)n2C[C@H](OCC(C)(C)C#N)c1ccccc1OC [Compound I-303]	> 50 µg/mL	2 µg/mL (≈ 3.26 µM)	0.4 µg/mL (≈ 0.653 µM)	2 µg/mL (≈ 3.26 µM)	≥ 2 µg/mL	2 µg/mL (≈ 3.26 µM)	> 50 µg/mL	0.08 µg/mL (≈ 0.131 µM)	–
Cc1c(-n2nccn2)sc2c1c(=O)n(C(C)(C)C(=O)NC(C)C)c(=O)n2C[C@H](OCC(C)(C)C#N)c1cc(C#N)ccc1OCC#N [Compound I-269]	> 50 µg/mL	> 50 µg/mL	10 µg/mL (≈ 15.2 µM)	10 µg/mL (≈ 15.2 µM)	> 50 µg/mL	2 µg/mL (≈ 3.04 µM)	> 50 µg/mL	0.4 µg/mL (≈ 0.608 µM)	–
COc1ccc(F)cc1[C@H](Cn1c(=O)n([C@H](C)C(=O)N(C)C(C)C)c(=O)c2c(C)c(-n3cccn3)sc21)OCCO [Compound I-250]	> 50 µg/mL	10 µg/mL (≈ 17 µM)	2 µg/mL (≈ 3.4 µM)	2 µg/mL (≈ 3.4 µM)	> 50 µg/mL	2 µg/mL (≈ 3.4 µM)	> 50 µg/mL	2 µg/mL (≈ 3.4 µM)	–
CCNC(=O)[C@H](C)n1c(=O)c2c(C)c(C(=O)OCC)sc2n(C[C@H](OCCC#N)c2cc(F)ccc2OC)c1=O [Compound I-305]	> 50 µg/mL	2 µg/mL (≈ 3.48 µM)	0.4 µg/mL (≈ 0.696 µM)	0.4 µg/mL (≈ 0.696 µM)	2 µg/mL (≈ 3.48 µM)	0.4 µg/mL (≈ 0.696 µM)	> 50 µg/mL	0.08 µg/mL (≈ 0.139 µM)	–

Reference: patent US10941157B2, “Pesticidal compositions and uses thereof” (Gilead Apollo, LLC, priority 2015, dated 2021)
